Here are results for 8 compounds from PubChem BioAssay (NCI).

Structures are written as SMILES.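 Protocol summary: plate cells (96-well), add compound at 5 concentrations, incubate 48 h, interpolate endpoints linearly. TGI denotes the concentration required for complete inhibition of growth.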 Where a SMILES comes first, the peptide text is derived from it. [ ]: non-standard residue; d: D form. The star is where a group is joined. ξ: configuration not given here. Propanoyl(3-(4-MeO-Ph)) = COc1ccc(CCC(=O)*)cc1; Thr(3ξ) = CC(O)[C@H](N)C(=O)O; dNMeL = CN[C@H](CC(C)C)C(=O)O; OBn = c1ccc(CO*)cc1; ξLac = CC(O)C(=O)O

Holding throughout (experiment): growth of human tumour cells (NCI), 48 h
Assay [1] relates to BT-549 breast.
The test system of assay [2] is CCRF-CEM leukemia.
In assay [3] the test system is DU-145 prostate.
For assay [4], the system named is HCT-116 colon.
The test system of assay [5] is LOX IMVI melanoma.
Assay [6] has as its system M14 melanoma.
Assay [7] deals with MDA-MB-231 breast.
The subject of assay [8] is MDA-MB-435.
For assay [9], the system named is MOLT-4 leukemia.
For assay [10], the system named is NCI-H226 lung.
Assay [11] has as its system NCI-H522 lung.
Assay [12] has as its system OVCAR-8 ovarian.
Assay [13] deals with RPMI-8226 leukemia.
For assay [14], the system named is SF-268 CNS.
For assay [15], the system named is SF-295 CNS.
Assay [16] relates to SK-OV-3 ovarian.
The subject of assay [17] is SNB-75 CNS.
Assay [18] has as its system T-47D breast.

In the case of `COc1ccc(CCC(=O)OC(C)[C@H](NC(=O)[C@@H](CC(C)C)N(C)C(=O)[C@@H]2CCCN2C(=O)C(C)O)C(=O)OCc2ccccc2)cc1` (stereo not given in full) (H-[ξLac]P[dNMeL][Thr(3ξ)](Propanoyl(3-(4-MeO-Ph)))-OBn), the TGI in assay [1] is above 100 µM; in [2] it was 68.9 µM; in assay [3], above 100 µM; in [4], above 100 µM; in assay [5], 41.4 µM; in assay [6], 30.6 µM. The TGI was 46.5 µM in assay [7]; 44.7 µM in assay [8]; 63 µM in assay [9]; 98.3 µM in assay [10]; 50.4 µM in [11]; above 100 µM in assay [12]. In addition, the TGI in assay [13] is 80.6 µM; in assay [14] it was 99.5 µM; in assay [15] it was above 100 µM; in [16], above 100 µM; in [17] it was 45.7 µM; in assay [18], 74.5 µM.
Take `CC1=C(C(=O)Nc2ccccc2)C(c2ccc(C)o2)C(C#N)=C(SCc2ccccc2)N1` (stereo not given): the TGI in [1], in [2], in assay [3], in [4], in assay [5] and in assay [6] was above 100 µM throughout. Besides, the TGI was above 100 µM in [7]; 24.6 µM in [8]; above 100 µM in assay [9]; above 100 µM in [10]; above 100 µM in assay [11]; above 100 µM in assay [12]. The TGI in assay [13], in [14], in assay [15], in assay [16], in assay [17] and in assay [18] was above 100 µM in each case.
In the case of `O=C(/C=C/c1cccs1)c1cccc(C(=O)/C=C/c2cccs2)n1`, the TGI is above 100 µM in [1]; 8.51 µM in assay [2]; above 100 µM in assay [3]; 11.3 µM in assay [4]; 7.34 µM in assay [5]; above 100 µM in [6]. Also, the TGI was above 100 µM in assay [7]; above 100 µM in assay [8]; 6.54 µM in [9]; above 100 µM in assay [10]; above 100 µM in assay [11]; 19.6 µM in [12]. For the same compound, the TGI in [13] is 16 µM; in assay [14], above 68.5 µM; in assay [15] it was above 100 µM; in [16] it was above 100 µM; in assay [17], above 100 µM; in assay [18] it was above 100 µM.
Turning to `CC(=O)c1c(-c2ccccc2)c(-c2ccc(OCCN(C)C)cc2)n2ccccc12`, the TGI came to 30.3 µM in [1]; 61.1 µM in assay [2]; 31.8 µM in [3]; 26 µM in assay [4]; 29.1 µM in assay [5]; 30.8 µM in [6]. In addition, the TGI in [7] was 31 µM; in assay [8], 35.3 µM; in assay [9] it was 48 µM; in assay [10], 38.3 µM; in [11], 27.9 µM; in assay [12], 31 µM. The TGI is 60.2 µM in [13]; 33.1 µM in assay [14]; 30.9 µM in [15]; 38.2 µM in assay [16]; 27.9 µM in [17]; 37.8 µM in [18].
For the compound `Cc1ccc(/C=N/Nc2nncc3ccccc23)s1`, the TGI in [1] was above 100 µM; in assay [2], above 100 µM; in assay [3] it was above 31.6 µM; in assay [4], above 100 µM; in [5] it was above 100 µM; in [6] it was above 100 µM. Further, the TGI was above 82 µM in [7]; above 100 µM in assay [8]; above 100 µM in assay [9]; above 100 µM in [10]; above 100 µM in assay [11]; above 100 µM in assay [12]. The TGI was above 100 µM in assay [13]; above 100 µM in [14]; 98.2 µM in assay [15]; above 100 µM in [16]; above 75.9 µM in assay [17]; above 100 µM in [18].
Regarding `c1ccc(/N=C2\c3ccccc3CN2c2ccccn2)nc1`, the TGI in assay [1], in [3], in assay [4], in assay [5], in assay [6] and in assay [7] was above 100 µM throughout. The TGI in assay [8], in assay [9], in assay [10], in [11], in assay [12] and in [13] was above 100 µM throughout. The TGI in [14] is above 100 µM; in assay [15], above 100 µM; in [16] it was above 100 µM; in assay [17], above 100 µM; in assay [18], 77.2 µM.
In the case of `Cn1c2ccccc2n2c(=O)c3cccnc3c(C#N)c12`, the TGI in [1], in assay [3], in assay [4], in [5], in assay [7] and in assay [8] was above 100 µM each time. Also, the TGI in [9] was above 100 µM; in assay [10], 30.1 µM; in assay [11] it was above 100 µM; in [12], above 100 µM; in [13] it was above 100 µM; in assay [14], above 100 µM. For the same compound, the TGI in assay [15], in assay [16], in assay [17] and in assay [18] was above 100 µM each time.
As for `O=C(CN1CCOCC1)CC(O)(C(F)(F)F)C(F)(F)F`, the TGI in assay [1], in assay [2], in assay [3], in assay [4], in assay [5] and in assay [6] was above 100 µM each time. The TGI in assay [7], in assay [8], in assay [9], in assay [10], in assay [11] and in assay [12] was above 100 µM throughout. Further, the TGI in assay [13], in assay [15], in [16], in assay [17] and in assay [18] was above 100 µM throughout.
